Assay results reported in PubChem BioAssay AID179 (DTP/NCI, 2004).
Active and inactive are the calls of the source.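 How the source made its calls: active means compounds giving half or more protection of infected cells from virus-caused growth loss, again on retest; inactive means the rest.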

Tested on: CEM cells HIV-1 protection, formazan growth assay
Test: NCI AIDS Antiviral Assay
Details: for IC50: measured here: growth of uninfected CEM cells
In short: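 Soluble formazan readout of cell growth; CEM cells ± HIV-1; 5 drug concs. ≥50% protection → retest; ≥50% again = moderately active; reproducible 100% = confirmed active.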

Row | Structure (SMILES) | EC50 [µM] | IC50 [µM] | outcome
1 | CC(=O)OC(C)C1C2=C(C(=O)CC1(C)O)C(=O)c1c(ccc(-c3ccc4c(c3O)C(=O)C3=C(C4=O)C(C(C)OC(C)=O)C(C)(O)CC3=O)c1O)C2=O (configuration not stated) | > 66.1 | 0.263 | 
2 | CCSCCCCCCCCCCC(=O)O | > 200 | 63.1 | 
3 | Cc1nc2c(=O)n(-c3ccccc3)c(=O)n(-c3ccccc3)c2o1 | > 200 | > 200 | 
4 | O=S1(=O)CC(c2ccccc2)(c2ccccc2)Nc2ccccc21 | > 200 | > 100 | 
5 | NCCNCCCCCCCCCCCCOS(=O)(=O)O | > 112 | > 112 | 
6 | Cc1c(-c2coc(-c3ccccc3)n2)c(=O)n(-c2ccccc2)n1C | > 107 | > 107 | 
7 | O=C(NNCC(O)COc1ccccc1)c1ccccc1 (configuration not stated) | > 200 | > 200 | 
8 | CS(=O)(=O)OC1CCC2(C#N)CCC1C2=O (configuration not stated) | > 1020 | > 1020 | 
9 | N=C1N=C(N)c2cc3c(cc21)SCCSCCCSCCS3 | > 50.1 | 8.51 | 
10 | c1ccc(-c2sc(-c3ccccc3)c3c2[C@H](c2ccccc2)S[C@H]3c2ccccc2)cc1 |  |  | inactive
11 | Cc1coc2c1C1OC(=O)C3(C/C=C\C(C)C2)OC13 (configuration not stated) | > 72.4 | > 72.4 | 
12 | C1=C(c2ccccc2)Nc2ccccc2N=C1c1ccccc1 | > 200 | > 200 | 
13 | CCC(C)N1CN(c2ccccc2)C2(CCN(CCCSc3ccc(F)cc3)CC2)C1=O (configuration not stated) | > 200 | 4.17 | 
14 | N=c1nc(N)nc2c3ccccc3nnn12 | > 24.5 | > 24.5 | 
15 | CCOC(=O)c1ccc(C)c(N=NN(C)C)c1 |  |  | inactive
16 | Cc1cccc(C)c1NC(=O)CCC/C(CC(=O)c1ccc(F)cc1)=N\NC(=O)C(=O)NN | > 148 | > 148 | 
17 | C(=C/c1ccnc2ccccc12)/c1cccs1 | 0.0631 | 47.9 | 
18 | O=C1c2c(O)cccc2C(C(=O)CCCCCC(=O)C2c3cccc(O)c3C(=O)c3c(O)cccc32)c2cccc(O)c21 | > 6.61 | 6.17 | 
19 | COc1cc(/C=C/C(=O)OCC23CC[C@@]4(C(=O)O)CCC(C)[C@H](C)C4C2=CCC2[C@@]4(C)CC[C@H](O)C(C)(C)C4CC[C@]23C)ccc1O (some centres not stated) | > 200 | 1.05 | 
20 | Cc1cc(C)nc(NS(=O)(=O)c2ccc(N=c3c4ccccc4n(Cc4ccccc4)c4ccccc34)cc2)n1 |  |  | inactive
21 | CCC1(C)NN=c2s/c(=C/c3ccc(OC)cc3)c(=O)n2N1 (configuration not stated) |  |  | inactive
22 | CCN(CC)CSc1nc2ccccc2[nH]1 |  |  | inactive
23 | CCOC(=O)C/C(C)=N\NS(=O)(=O)c1ccc(N)cc1 | > 417 | > 417 | 

Row | Structure (SMILES) | EC50 [µM] | IC50 [µM] | outcome
24 | Cc1cn(C2CC(N=[N+]=[N-])C(COC(=O)CCCCCCCCCCCOc3ccccc3)O2)c(=O)[nH]c1=O (configuration not stated) | 0.0501 | 102 | 
25 | Cc1cccnc1/N=C/c1c(O)n(C)c(=O)[nH]c1=O | > 200 | > 200 | 
26 | O=S(=O)(N1CCCCN(S(=O)(=O)C(F)(F)F)CCCN(S(=O)(=O)C(F)(F)F)CCCN(S(=O)(=O)C(F)(F)F)CCCCN(S(=O)(=O)C(F)(F)F)CCCN(S(=O)(=O)C(F)(F)F)CCC1)C(F)(F)F | > 200 | > 200 | 
27 | O=S(=O)(O)CCCCO | > 200 | > 200 | 
28 | COc1ccc(C(c2ccc(C(C)C)cc(=O)c2O)c2ccc3cccnc3c2O)cc1 (configuration not stated) |  |  | inactive
29 | N#CC1(Cc2ccccc2[N+](=O)[O-])c2ccccc2C2C(N1C(=O)c1ccccc1)C2(Cl)Cl (configuration not stated) |  |  | inactive
30 | Cn1c(C(=O)c2cc3ccccc3n2C)cc2ccccc21 | > 18.2 | > 18.2 | 
31 | NC(Cc1ccc(O)c(O)c1)P(=O)(O)O (configuration not stated) | > 200 | 24.5 | 
32 | Cc1cc(O)c(/C=N/C(=S)Nc2cccc(C)c2C)c(=O)o1 |  |  | inactive
33 | Nc1c(-c2nc3ccccc3s2)[n+]([O-])c2ccccc2[n+]1[O-] |  |  | inactive
34 | COC(=O)C(=O)Nc1cc2c3c(c1)Oc1cccc4c1C3(C)c1c(cccc1O2)O4 | 28.2 | 126 | 
35 | BrC1=CC=C2NC=CC3=CC=NC1C32 (configuration not stated) |  |  | inactive
36 | CCC1=C(CC)C1(C#N)[N+](=O)[O-] | > 251 | > 251 | 
37 | O=C1OCCC1(Br)C(Br)c1ccccc1 (configuration not stated) | > 200 | 6.03 | 
38 | Nc1c(Cl)cc(/C=C2\C=Cc3ccccc32)cc1Cl | > 18.2 | > 18.2 | 
39 | O=C1NC(=O)C(c2ccccc2)O1 (configuration not stated) | > 1410 | 447 | 
40 | CC(=O)Oc1ccc(/C=C/C(=O)OCCCOC(=O)/C=C/c2ccc(OC(C)=O)c(OC(C)=O)c2)cc1OC(C)=O | > 100 | > 100 | 
41 | Cc1cc(NS(=O)(=O)c2ccc(N=c3c4ccccc4n(-c4ccccc4)c4ccccc34)cc2)no1 |  |  | inactive
42 | COC(=O)[C@]1(C)CCC[C@]2(C)c3cc(Br)c(C(C)C)cc3CC[C@H]12 | > 100 | > 100 | 
43 | CCc1cccc(C(C)C)c1N1C(=O)C(=O)C(c2nc3ccccc3s2)C(=O)C1=O | > 17.4 | > 17.4 | 
44 | CC1OC(n2cnc3c(=O)[nH]cnc32)C(O)C(O)C1O (configuration not stated) | > 200 | > 200 | 
45 | C[C@@]12C(=O)OC(=O)[C@]1(C)[C@H]1CC[C@@H]2O1 | > 347 | 4.9 | 
46 | CN(C)c1cc(CN[C@@H](Cc2cn(C(c3ccccc3)(c3ccccc3)c3ccccc3)cn2)C(=O)O)nc(CN[C@@H](Cc2cn(C(c3ccccc3)(c3ccccc3)c3ccccc3)cn2)C(=O)O)c1 | > 100 | 19.5 | 

Row | Structure (SMILES) | EC50 [µM] | IC50 [µM] | outcome
47 | CCOC(=O)C(OCC1CC=CCC1)Sc1ccccc1 (configuration not stated) | > 23.4 | > 23.4 | 
48 | CCOC(=O)c1c(C)nc(C)c(C(=O)OCC)c1-c1ccc(N(C)C)cc1 | > 200 | 53.7 | 
49 | O=[N+]([O-])c1c(Br)cc(Br)c2c1Nc1c(ccc(Cl)c1Cl)S2 | > 200 | 4.9 | 
50 | Cc1cc(=O)[nH]c(CNC(=O)Cc2ccccc2)n1 | > 977 | > 977 | 
51 | NNC1=N/C(=C\c2ccccc2O)C(=O)N1 | > 200 | 35.5 | 
52 | CSc1c(C(=O)Nc2ccccc2)c(N)n(N)c(=O)c1C#N | 55 | > 200 | 
53 | CCCCCCCCCCCCCCCC(=O)OCC1OC(CO)(OC2OC(CO)C(O)C(O)C2O)C(O)C1O (configuration not stated) | > 200 | 64.6 | 
54 | N#Cc1c2c(c(Cl)n3c1nc1ccccc13)CCCC2 | > 3.72 | > 3.72 | 
55 | Nc1ncc(/C=C/CNC(=O)c2ccc[nH]2)[nH]1 | > 1070 | 155 | 
56 | COc1ccc(-n2c(SCC(=O)NC(=O)Nc3ccccc3)nc3c(Br)cc(Br)cc3c2=O)cc1 | > 200 | > 200 | 
57 | CCCN(CCC)C(=O)c1nc(N)nc(-c2ccc(OC)cc2)c1-c1ccc(OC)cc1 | > 16.6 | > 16.6 | 
58 | O=C1OC(=O)c2c1nc1ccccc1c2-c1ccccc1 |  |  | inactive
59 | CCn1c(=O)c2nc(SC)sc2n(-c2ccccc2)c1=O | > 200 | > 200 | 
60 | COc1ccc2cc3[nH]c(=O)cc(O)c3cc2c1OC |  |  | inactive
61 | CCOC(=O)/C(=C\c1ccc(OCc2ccccc2)c(OC)c1)C(=O)c1ccccc1 | > 12.6 | > 12.6 | 
62 | Cc1cc(N(CCC#N)S(=O)(=O)c2ccccc2)ccc1/C=C1N=C(/C=C/c2ccccc2)OC\1=O |  |  | inactive
63 | OC[C@@H](O)[C@H]1NC[C@@H](O)[C@H]1O | > 200 | > 200 | 
64 | CCC1(c2cccc(C)c2)Oc2ccccc2-n2cccc2C1=O (configuration not stated) | 0.537 | 126 | 
65 | O=C1CC(=O)NC(=NNS(=O)(=O)c2ccccc2)N1 | > 200 | > 200 | 
66 | NNC(N)Nc1ccccc1 (configuration not stated) | > 200 | > 200 | 
67 | O=[N+]([O-])c1ccc(Sc2c3ccccc3nc3ccccc23)cn1 | > 100 | 7.24 | 
68 | O=c1sc2ccccc2n1CC1CS1 (configuration not stated) | > 302 | 11 | 
69 | COC(=O)C1=Nc2c(C)nn(-c3ccccc3)c2N=C(c2ccc(C)cc2)C1 | > 200 | > 200 | 

Row | Structure (SMILES) | EC50 [µM] | IC50 [µM] | outcome
70 | O=C(O)/C(=C(/c1ccccc1)c1ccc(Cl)cc1)c1ccccc1 | > 107 | 89.1 | 
71 | O=C(Oc1ccc(OC(Oc2ccccc2)c2ccccc2)cc1)c1ccccc1 (configuration not stated) | > 200 | 44.7 | 
72 | COc1ccc(COC(=O)NNC(=O)C2CSC(c3ccccc3)N2C(C)=O)cc1 (configuration not stated) | > 200 | 174 | 
73 | C=CC(C)(C)[C@@]12CC3C(=O)N[C@@H](Cc4ccccc4)C(=O)N3[C@@H]1N(C(C)=O)c1ccccc12 (some centres not stated) | > 81.3 | 70.8 | 
74 | CCC1(CC)C(=O)NC(=S)N=C1N |  |  | inactive
75 | CCOC(=O)C1SC(=Nc2ccc(OC)c(OC)c2)N=C1C (configuration not stated) | > 22.4 | > 22.4 | 
76 | CCN(CC)C(=O)Cc1c(C(=O)N(CC)CC)c(=O)nc2sccn12 | > 692 | > 692 | 
77 | COc1cc2c(c3c1C(=O)[C@H](C)[C@@H](C)O3)C=CC(C)(C)O2 | > 200 | 50.1 | 
78 | COc1ccc([C@H]2CC(=O)C[C@H](c3ccc(OC)cc3)C23C(=O)c2ccccc2C3=O)cc1 | > 200 | 2.63 | 
79 | CC12CCCCC1=[N+]([O-])C(C)(C)N2O (configuration not stated) | > 200 | > 200 | 
80 | OCCCN(CCO)CCN(CCCO)CCCO | > 200 | > 200 | 
81 | OC(C/C(=N\N=C(/CC(O)(C(F)(F)F)C(F)(F)F)c1ccccc1)c1ccccc1)(C(F)(F)F)C(F)(F)F | > 200 | > 200 | 
82 | O=C(/C=C(\O)c1ccccc1)C(=O)NNc1ccc([N+](=O)[O-])cc1[N+](=O)[O-] | > 200 | 60.3 | 
83 | CC(C)=CC1C(C(=O)N2CCCCCC2)C1(C)C (configuration not stated) | > 200 | > 200 | 
84 | COc1ccc(/C(C)=N/NC(N)=O)cc1 | > 174 | > 174 | 
85 | COc1ccc(-c2nnc3c4ccccc4sn23)cc1 | > 25.7 | 22.4 | 
86 | CC(Cl)CN1c2ccccc2Sc2ccc(Cl)cc21 (configuration not stated) | > 200 | 132 | 
87 | CSc1nc2c(c(=O)n1C)N=C(c1ccc(Cl)cc1)CC(c1ccccc1)N2 (configuration not stated) | > 200 | 18.2 | 
88 | CN(C(=O)C1=CCCCCC1)c1ccccc1I | > 200 | 38.9 | 
89 | OC1CCCC2CCC[N-]C12.OC1CCCC2CCC[N-]C12.[Mn+2] (configuration not stated) |  |  | inactive
